Patent US20230113037A1 (Bayer Aktiengesellschaft, priority 2019, published 2023)
Read-outs that look alike come from different tables or passages of the source.

Assays:
[1] = target: T1, AHR (Homo sapiens, UniProt P35869); assay: In vitro assay 1: antagonism in human cell line (AHR transactivation, firefly luciferase reporter, kynurenic acid prestimulated); format: cell-based; conditions: AHR Antagonism Human IC50 [M]
T1 construct: U87 MG glioblastoma cells (ATCC #HTB-14) endogenously expressing AHR; endogenous in cells; host or cells: U87 MG glioblastoma cells (ATCC #HTB-14)
T1 sequence (P35869 11-848): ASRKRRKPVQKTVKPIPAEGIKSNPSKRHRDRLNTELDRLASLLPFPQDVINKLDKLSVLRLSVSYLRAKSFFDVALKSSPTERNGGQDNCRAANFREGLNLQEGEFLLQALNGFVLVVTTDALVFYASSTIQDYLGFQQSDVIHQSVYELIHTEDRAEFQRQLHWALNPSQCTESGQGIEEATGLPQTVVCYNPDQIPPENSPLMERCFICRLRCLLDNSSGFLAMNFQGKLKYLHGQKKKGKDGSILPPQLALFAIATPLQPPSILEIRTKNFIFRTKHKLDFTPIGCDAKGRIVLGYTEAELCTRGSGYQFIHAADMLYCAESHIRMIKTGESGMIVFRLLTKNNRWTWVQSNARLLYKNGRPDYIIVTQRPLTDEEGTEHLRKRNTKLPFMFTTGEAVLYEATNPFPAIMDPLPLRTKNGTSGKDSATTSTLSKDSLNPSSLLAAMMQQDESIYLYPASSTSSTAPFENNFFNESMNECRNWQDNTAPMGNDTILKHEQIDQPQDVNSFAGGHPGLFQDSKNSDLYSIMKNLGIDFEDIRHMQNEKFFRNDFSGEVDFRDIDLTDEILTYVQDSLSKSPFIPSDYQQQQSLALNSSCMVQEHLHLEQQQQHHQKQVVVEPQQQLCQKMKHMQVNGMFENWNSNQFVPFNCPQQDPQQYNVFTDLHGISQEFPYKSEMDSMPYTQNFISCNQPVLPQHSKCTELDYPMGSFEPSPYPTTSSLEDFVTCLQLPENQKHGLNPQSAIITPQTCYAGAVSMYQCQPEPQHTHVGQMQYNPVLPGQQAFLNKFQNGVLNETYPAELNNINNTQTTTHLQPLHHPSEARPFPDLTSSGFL
In short: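 Antagonism is measured against kynurenic acid prestimulation in U87 MG glioblastoma cells carrying stable DRE-luciferase and Renilla reporters. Positive inhibition control: 150 μM kynurenic acid with 5 μM staurosporine. Values are normalized to controls; repeats are averaged or given as medians.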

[2] = target: T2, AHR (Mus musculus, UniProt P30561); assay: In vitro assay 3: antagonism in mouse cell line (AHR transactivation, firefly luciferase reporter, kynurenic acid prestimulated); format: cell-based
T2 sequence (P30561 1-848 P471L/N533S/M589L): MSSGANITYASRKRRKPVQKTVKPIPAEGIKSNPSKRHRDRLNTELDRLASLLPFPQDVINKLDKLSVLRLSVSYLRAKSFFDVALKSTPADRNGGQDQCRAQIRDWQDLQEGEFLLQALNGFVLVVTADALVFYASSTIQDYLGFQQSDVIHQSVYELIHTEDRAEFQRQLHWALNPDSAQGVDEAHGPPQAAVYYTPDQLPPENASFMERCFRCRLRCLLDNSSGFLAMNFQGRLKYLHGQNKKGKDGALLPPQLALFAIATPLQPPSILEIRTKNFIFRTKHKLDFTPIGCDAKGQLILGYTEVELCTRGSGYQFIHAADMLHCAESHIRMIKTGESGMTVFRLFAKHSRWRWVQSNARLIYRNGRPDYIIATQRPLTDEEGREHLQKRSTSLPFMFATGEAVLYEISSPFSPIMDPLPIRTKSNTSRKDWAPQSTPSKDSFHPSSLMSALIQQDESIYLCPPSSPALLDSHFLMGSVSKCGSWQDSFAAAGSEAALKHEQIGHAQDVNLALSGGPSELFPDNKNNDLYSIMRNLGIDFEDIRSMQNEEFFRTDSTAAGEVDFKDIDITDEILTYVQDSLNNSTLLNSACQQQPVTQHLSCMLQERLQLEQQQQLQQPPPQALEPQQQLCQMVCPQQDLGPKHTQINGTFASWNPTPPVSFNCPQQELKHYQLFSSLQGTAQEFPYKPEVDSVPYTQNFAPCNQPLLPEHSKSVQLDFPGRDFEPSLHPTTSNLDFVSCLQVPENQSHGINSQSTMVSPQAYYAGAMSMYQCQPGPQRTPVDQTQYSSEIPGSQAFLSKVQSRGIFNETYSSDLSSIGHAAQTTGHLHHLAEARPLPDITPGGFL
In short: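 Kynurenic acid-prestimulated mouse reporter cells; stable AHR-inducible firefly luc construct with DRE sites in promoter. No-agonist wells = positive inhibition ctrl. Luminescence normalized to pos/neg ctrls; n>1 reported as mean or median.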

[3] = Hepa 1c1c7 cells, 200 μM kynurenic acid, 20 hours, firefly luciferase reporter, read-out: AHR Antagonism Mouse IC50
[4] = mouse Hepa 1c1c7 cells, 200 μM kynurenic acid, 20 hours, read-out: AHR Antagonism Mouse IC50

| IC50 ([1]; firefly luciferase reporter) [M] | IC50 [2, 3] [nM] | IC50 [1] [M] | IC50 [2, 4] [nM] | Compound | IC50 ([2]; read-out: AHR Antagonism Mouse IC50, mouse Hepa 1c1c7 cells, 200 μM kynurenic acid, 20 hours) [nM] |
| --- | --- | --- | --- | --- | --- |
| 7.95e-07 | 272 |  |  | CCn1cc(-c2nc3c4cccc(F)c4nc(N[C@@H]4CNCCNC4=O)n3n2)cn1 [Example 961, (6R)-6-{[2-(1-ethyl-1H-pyrazol-4-yl)-7-fluoro-[1,2,4]triazolo[1,5-c]quinazolin-5-yl]amino}1-4,-diazepan-5-one] |  |
|  |  | 3.8e-09 | 5.57 | N#Cc1ccc(-c2nc3c4cccc(Br)c4nc(N[C@@H]4CCCNC4=O)n3n2)cc1 [Example 560, 4-(7-bromo-5-{[(3R)-2-oxopiperidin-3-yl]amino}[1,2,4]triazolo[1,5-c]quinazolin-2-yl)benzonitrile] |  |
|  |  | 1.26e-08 | 1.47 | CCNC(=O)C(CC)Nc1nc2ccccc2c2nc(-c3ccccc3OC(F)(F)F)nn12 (single isomer, unassigned) [Example 664, N-ethyl-2-({2-[2-(trifluoromethoxy)phenyl][1,2,4]triazolo[1,5-c]quinazolin-5-yl}amino)butanamide] |  |
|  |  | 1.7e-09 | 1.4 | O=C1NCCCC[C@H]1Nc1nc2ccc(F)cc2c2nc(-c3ccccc3F)nn12 [Example 234, (3R)-3-{[9-fluoro-2-(2-fluorophenyl)[1,2,4]triazolo[1,5-c]quinazolin-5-yl]amino}azepan-2-one] |  |
| 2.13e-08 | 10.5 |  |  | Cc1c(-c2nc3c4cccc(Br)c4nc(N[C@@H]4CNCCNC4=O)n3n2)cnn1C [Example 979, (6R)-6-{[7-bromo-2-(1,5-dimethyl-1H-pyrazol-4-yl)[1,2,4]triazolo[1,5-c]quinazolin-5-yl]amino}-1,4-diazepan-5-one] |  |
|  |  | 3.98e-09 | 2.34 | COc1cccc(-c2nc3c4c(C)cccc4nc(N[C@@H]4CCCCNC4=O)n3n2)c1 [Example 178, (3R)-3-{[2-(3-methoxyphenyl)-10-methyl[1,2,4]triazolo[1,5-c]quinazolin-5-yl]amino}azepan-2-one] |  |
|  |  | 3.37e-07 | 25.7 | COc1cccc(-c2nc3c4c(C)cccc4nc(N[C@H]4CCCCNC4=O)n3n2)c1 [Example 181, (3S)-3-{[2-(3-methoxyphenyl)-10-methyl[1,2,4]triazolo[1,5-c]quinazolin-5-yl]amino}azepan-2-one] |  |
| 3.45e-08 | 6.16 |  |  | CC(C)[C@@H](Nc1nc2c(Br)cccc2c2nc(-c3cnn(C)c3)nn12)C(=O)N1CCOCC1 [Example 926, (2R)-2-{[7-bromo-2-(1-methyl-1H-pyrazol-4-yl)[1,2,4]triazolo[1,5-c]quinazolin-5-yl]amino}-3-methyl-1-(morpholin-4-yl)butan-1-one] |  |
|  |  | 1.43e-07 | 15.4 | COc1cccc(-c2nc3c4cc(F)ccc4nc(N[C@H]4CCCCNC4=O)n3n2)c1 [Example 160, (3S)-3-{[9-fluoro-2-(3-methoxyphenyl)[1,2,4]triazolo[1,5-c]quinazolin-5-yl]amino}azepan-2-one] |  |
|  |  | 1.85e-08 | 55.7 | COc1ccc(-c2nc3c4cccc(C5(C)CC5)c4nc(N[C@@H]4CCCCNC4=O)n3n2)cc1 [Example 399, (3R)-3-{[2-(4-methoxyphenyl)-7-(1-methylcyclopropyl)[1,2,4]triazolo[1,5-c]quinazolin-5-yl]amino}azepan-2-one] |  |
|  |  | 8.94e-08 | 62.1 | Nc1cccc(-c2nc3c4ccccc4nc(N[C@@H]4CNCCNC4=O)n3n2)c1 [Example 413, (6R)-6-{[2-(3-aminophenyl)[1,2,4]triazolo[1,5-c]quinazolin-5-yl]amino}-1,4-diazepan-5-one] |  |
|  |  | 6.01e-07 | 246 | CNC(=O)[C@H](C)Nc1nc2ccccc2c2nc(-c3cccc(OC)c3)nn12 [Example 102, N^2-[2-(3-methoxyphenyl)[1,2,4]triazolo[1,5-c]quinazolin-5-yl]-N-methyl-L-alaninamide] |  |
| 6.42e-09 | 3 |  |  | CCCCNC(=O)[C@@H](CC)Nc1nc2c(Br)cccc2c2nc(-c3ccc(Cl)cc3OC(F)F)nn12 [Example 804, (2R)-2-({7-bromo-2-[4-chloro-2-(difluoromethoxy)phenyl][1,2,4]triazolo[1,5-c]quianzolin-5-yl}amino)-N-butylbutanamide] |  |
|  |  | 8.35e-08 | 86.8 | CC(C)(C)c1noc(-c2nc3c4ccccc4nc(N[C@@H]4CCCCNC4=O)n3n2)n1 [Example 134, (3R)-3-{[2-(3-tert-butyl-1,2,4-oxadiazol-5-yl)[1,2,4]triazolo[1,5-c]quinazolin-5-yl]amino}azepan-2-one] |  |
|  |  | 7.44e-08 | 27.6 | CC[C@@H](Nc1nc2ccccc2c2nc(-c3cnn(C)c3)nn12)C(N)=O [Example 17, (2R)-2-{[2-(1-methyl-1H-pyrazol-4-yl)[1,2,4]triazolo[1,5-c]quinazolin-5-yl]amino}butanamide] |  |
| 2.36e-09 | 1.68 |  |  | COc1ccc(-c2nc3c4cccc(Br)c4nc(N[C@H](C)C(=O)N4CCO[C@@H](C)C4)n3n2)cc1 [Example 909, (2R)-2-{[7-bromo-2-(4-methoxyphenyl)[1,2,4]triazolo[1,5-c]quinazolin-5-yl]amino}-1-[(2S)-2-methylmorpholin-4-yl]propan-1-one] |  |
|  |  | 8.5e-08 | 26.1 | Cc1ccccc1-c1nc2c3ccccc3nc(NC3CCCNC3=O)n2n1 (single isomer, unassigned) [Example 49, 3-{[2-(2-methylphenyl)[1,2,4]triazolo[1,5-c]quinazolin-5-yl]amino}piperidin-2-one] |  |
| 2.78e-08 | 43.3 |  |  | COCCN(C)C(=O)[C@@H](C)Nc1nc2c(C(F)(F)F)cccc2c2nc(-c3cnn(C)c3)nn12 [Example 878, N-(2-methoxyethyl)-N-methyl-N^2-[2-(1-methyl-1H-pyrazol-4-yl)-7-(trifluoromethyl)[1,2,4]triazolo[1,5-c]quinazolin-5-yl]-D-alaninamide] |  |
| 1.07e-07 | 1560 |  |  | Cn1cc(-c2nc3c4cccc(S(C)(=O)=O)c4nc(N[C@@H]4CCCCNC4=O)n3n2)cn1 [Example 858, (3R)-3-{[7-(methanesulfonyl)-2-(1-methyl-1H-pyrazol-4-yl)[1,2,4]triazolo[1,5-c]quinazolin-5-yl]amino}azepan-2-one] |  |
| 1.54e-08 | 18.5 |  |  | Cc1c(-c2nc3c4cccc(F)c4nc(N[C@@H]4CCCCNC4=O)n3n2)cnn1C [Example 835, (3R)-3-{[2-(1,5-dimethyl-1H-pyrazol-4-yl)-7-fluoro[1,2,4]triazolo[1,5-c]quinaozlin-5-yl]amino}azepan-2-one] |  |

| Compound | IC50 ([1]; firefly luciferase reporter) [M] | IC50 [2, 3] [nM] | IC50 [1] [M] | IC50 [2, 4] [nM] | IC50 ([2]; read-out: AHR Antagonism Mouse IC50, mouse Hepa 1c1c7 cells, 200 μM kynurenic acid, 20 hours) [nM] |
| --- | --- | --- | --- | --- | --- |
| CC[C@@H](Nc1nc2ccccc2c2nc(-c3ccccc3OC(F)F)nn12)C(N)=O [Example 476, (2R)-2-({2-[2-(difluoromethoxy)phenyl][1,2,4]triazolo[1,5-c]quinazolin-5-yl}amino)butanamide] |  |  | 3.93e-09 |  | 0.554 |
